Source: patent US5985835A, “Desmopressin for nocturia, incontinence and enuresis” (priority 1997, dated 1999)
Like-named read-outs stand apart in the source and are kept apart here.

Legend:
Format in all cases: in vivo, human
[1] = test system: elderly persons with increased nocturnal diuresis and decreased ADH secretion; details: for Diuresis-day: 08-20 h; for Diuresis-night: 20-08 h
Description: They had no cardiac or renal disease or diabetes nor were they receiving diuretics. […] Intravenous specimens for the determination of ADH and NAP were frozen at […]. Plasma ADH was measured as arginine vasopressin by radioimmunoassay after extraction with ethanol. The reference range for plasma ADH was 1-5 pmol 1^-1 with an interassay variability of 15.1% at 0.9 pmol 1^-1 and 6.3% at 1.25 pmol 1^-1. Their nocturnal diuresis had decreased during desmopressin treatment on two successive days. After an evaluation of this study the participants were invited to take part in a two-month treatment with desmopressin ([…]®) 40 μg, given as an intranasal aerosol at 20.00 h. […] No changes in their way of life and no restriction in fluid intake was prescribed. The study was carried out after one and two months of treatment and one month after the treatment. […] Mean values of diuresis and micturitions for the 12-hour periods were calculated (Table 2). At these times also a questionnaire with 12 questions about general wellbeing and sleep was filled in (Table 1). The statistical method used a mean value ± standard deviation. The paired numerical data were analyzed with the 2-sided Student's t-test. Non-numerical data were analyzed with the x'-test.

[2] = test system: patients 60-74 years of age with increased nocturnal frequency due to nocturnal polyuria
Description: This example provides efficacy and safety data for oral desmopressin in the treatment of increased frequency due to nocturnal polyuria in the elderly. The study started with a run-in week to establish baseline. An open dose titration, one week each of 0.1 mg, 0.2 mg and 0.4 mg, was performed and followed by a wash-out of 1-2 weeks. Then followed the double-blind, placebo controlled, cross-over part of the study using the dose selected in the dose titration. Placebo and active treatment were given for 14 days each in a randomized order. […] The diagnosis and main criteria for inclusion was a healthy adult patient between 60-74 years of age suffering from increased nocturnal frequency (≥2 nocturnal voids) and a nocturnal urinary output ≥0.9 ml/min. The desmopressin used for the study was […]®, 0.1 mg and 0.2 mg tablets. […] Study duration, including run-in and wash-out periods, was 9 weeks. The criteria for evaluation were: 1. Efficacy: the change in nocturnal diuresis (ml/min), nocturnal micturition episodes and 24-hour diuresis. 2. Safety: changes from baseline in blood pressure, S-sodium, ankle circumference and bodyweight. Incidence of adverse events. The efficacy endpoints during the double blind part of the study were subjected to statistical analysis with an ANOVA model. Sequence effect was tested with the within mean square in the ANOVA. The residuals obtained were plotted against predicted values, normal plots were also produced. The plots were examined for relationship between variance and mean non-normality. Shapiro-Wilks test was performed to assist in these assessments. The difference in effect is presented in 95% confidence intervals for least square means, placebo versus desmopressin. All tests performed used a significance level of α=5%.

[3] = test system: elderly persons with increased nocturnal diuresis; assay: Pilot study of desmopressin treatment during 48 hours in elderly persons with increased nocturnal diuresis; details: desmopressin treatment on two successive days
Description: ADH levels were studied in a group of elderly persons who had increased nocturnal diuresis. The levels generally were very low and a pilot study was done to determine the effect of desmopressin treatment during a period of 48 hours. Their nocturnal diuresis had decreased during desmopressin treatment on two successive days. After an evaluation of this study the participants were invited to take part in a two-month treatment with desmopressin ([…]®) 40 μg, given as an intranasal aerosol at 20.00 h. The tests consisted of 7 men (aged 72±4 years) and 14 women (aged 73±6 years). No changes in their way of life and no restriction in fluid intake was prescribed. The study was carried out after one and two months of treatment and one month after the treatment.

[4] = men, 1 month of 40 μg intranasal
[5] = men, 2 months of 40 μg intranasal
[6] = men, 3 months (one month after treatment)
[7] = women, 1 month of 40 μg intranasal
[8] = women, 2 months of 40 μg intranasal
[9] = women, 3 months (one month after treatment)
[10] = oral tablets, titrated dose 0.1-0.4 mg, 14 days, statistically significant

- Potassium in serum ([1]; in vivo): did not change
- Sodium in serum ([1]; in vivo): did not change
Compound: NC(=O)CC[C@@H]1NC(=O)[C@H](Cc2ccccc2)NC(=O)[C@H](Cc2ccc(O)cc2)NC(=O)CCSSC[C@@H](C(=O)N2CCC[C@H]2C(=O)N[C@H](CCCN=C(N)N)C(=O)NCC(N)=O)NC(=O)[C@H](CC(N)=O)NC1=O [Desmopressin, 1-deamino-8-D-arginine vasopressin]
- Number of women who reduced nocturnal diuresis by less than 400 ml ([1]; after one month): 9 women
- Number of women who reduced nocturnal diuresis by less than 400 ml ([1]; after two months): 7 women
- Total 24-hour diuresis ([1]; during the study): more or less unchanged
- Decrease in average diuresis during the night, women versus men ([1]; during the treatment): twice as large in women as in men
- Diuresis during the daytime ([1]; during treatment): changed insignificantly
- Body weight ([1]; in vivo): did not change
- Diuresis-day/night ([1]; men, 0 (before treatment)): 0.67 ± 0.20
- No. of micturitions - night ([1]; men, 0 (before treatment)): 4.3 ± 1.2
- Diuresis-day ([1]; men, 0 (before treatment), mean ± SD): 511 ± 85 mL
- Diuresis-night ([1]; men, 0 (before treatment)): 763 ± 42 mL
- Diuresis-day Deviation from initial value % ([1]; men, 1 month): -9%
- Diuresis-day/night ([1]; men, 1 month): 0.83 ± 0.28
- Diuresis-night Deviation from initial value % ([1]; men, 1 month): -21%
- No. of micturitions - night ([1]; men, 1 month): 3.8 ± 1.7
- Diuresis-day [1, 4]: 465 ± 72 mL
- Diuresis-night [1, 4]: 603 ± 178 mL
- Diuresis-day Deviation from initial value % ([1]; men, 2 months): 2%
- Diuresis-day/night ([1]; men, 2 months): 0.91 ± 0.29
- Diuresis-night Deviation from initial value % ([1]; men, 2 months): -20%
- No. of micturitions - night ([1]; men, 2 months): 4.5 ± 2.0
- Diuresis-day [1, 5]: 524 ± 117 mL
- Diuresis-night [1, 5]: 612 ± 174 mL
- Diuresis-day Deviation from initial value % [1, 6]: -14%
- Diuresis-day/night [1, 6]: 0.66 ± 0.26
- Diuresis-night Deviation from initial value % [1, 6]: -6%
- No. of micturitions - night [1, 6]: 4.1 ± 1.6
- Diuresis-day [1, 6]: 441 ± 68 mL
- Diuresis-night [1, 6]: 717 ± 168 mL
- Reduction of nocturnal diuresis (all the men) ([1]; men, after both one and two months): less than 400 ml
- Decrease in nocturnal diuresis from the initial value ([1]; men, after one month): 21%
- Decrease in nocturnal diuresis from the initial value ([1]; men, after two months): 20%
- Daytime diuresis ([1]; one month after treatment, both men and women): there remained a reduction
- Number of nocturnal micturitions ([1]; women versus men): women were affected most positively
- Diuresis-day/night ([1]; women, 0 (before treatment)): 0.84 ± 0.40
- Diuresis-day ([1]; women, 0 (before treatment)): 699 ± 368 mL
- Diuresis-night ([1]; women, 0 (before treatment)): 892 ± 361 mL
- Diuresis-day Deviation from initial value % ([1]; women, 1 month): 6%
- Diuresis-day/night ([1]; women, 1 month): 1.46 ± 0.87
- Diuresis-night Deviation from initial value % ([1]; women, 1 month): -36%
- Diuresis-day [1, 7]: 746 ± 368 mL
- Diuresis-night [1, 7]: 570 ± 172 mL
- Diuresis-day Deviation from initial value % ([1]; women, 2 months): -4%
- Diuresis-day/night ([1]; women, 2 months): 1.14 ± 0.36
- Diuresis-night Deviation from initial value % ([1]; women, 2 months): -34%
- Diuresis-day [1, 8]: 673 ± 257 mL
- Diuresis-night [1, 8]: 592 mL
- Diuresis-day Deviation from initial value % [1, 9]: -14%
- Diuresis-day/night [1, 9]: 0.89 ± 0.36
- Diuresis-night Deviation from initial value % [1, 9]: -17%
- Diuresis-day [1, 9]: 587 ± 173 mL
- Diuresis-night [1, 9]: 739 ± 260 mL
- Decrease in nocturnal diuresis from the initial value ([1]; women, after one month): 36%
- Decrease in nocturnal diuresis from the initial value ([1]; women, after two months): 34%
- Less nocturnal diuresis than initial value ([1]; women, one month after the last day of treatment): 17%
- Tolerability ([2]; in vivo, po): well tolerated
- Duration of sleep between voids compared to placebo ([2]; oral tablets, titrated dose 0.1-0.4 mg, 14 days): significantly longer
- Nocturnal diuresis compared to placebo [2, 10]: lower
- Nocturnal voids compared to placebo [2, 10]: fewer
- Nocturnal symptoms ([2]; oral tablets, elderly population): significantly decreases
- Nocturnal diuresis [3]: decreased
